{
  "source": "patent US20230414715A1",
  "about": "“TRAIL COMPOUNDS FOR REDUCING CANCER TREAMENT SIDE EFFECTS” (BROWN UNIVERSITY, priority 2022, published 2023)",
  "key": {"[1]": {"tested_on": "lung tissue in irradiated C57B1/6 mice", "assay": "Immunohistochemistry of irradiated lung tissue", "type": "in vivo, mouse", "text": "Paraffin embedded sections of tissue were deparaffinized in xylene and rehydrated through graded ethanol solutions to phosphate-buffered saline (PBS). Heat-induced antigen retrieval (in 0.01 M citrate buffer; pH 6.0), endogenous peroxidase blocking (3% H202), and blocking were done using a standard protocol. […] Slides were developed with diaminobenzidine substrate (Vector Laboratories SK-4100) and counterstained with hematoxylin (Richard Allen Scientific). Slides were scanned (Olympus VS200) and representative brightfield images were taken and analyzed with OlyVIA software."}, "serum cytokines": {"tested_on": "serum cytokines", "assay": "Serum cytokine analysis (Luminex) of irradiated mice", "type": "in vivo, mouse", "conditions": "treated versus control", "experimental": "(§1) Animal studies were carried out at Brown University facilities with approval from Brown University IACUC. C57B1/6 mice (Taconic), mice with bi-allelic loss of TRAIL Death Receptor-(DR5-/-) in a C57B1/6 background, and mice with bi-allelic loss of TRAIL (TRAIL -/-) in a C57B1/6 background were given a single whole-thorax x-ray (Philips RT250) irradiation dose of 20 Gy with shielding of other organs. 8-15-week-old male and female mice of each genotype were used. […] Treatment was continued for two weeks, where TLY012 was administered twice a week and ONC201 was administered once a week. For each genetic background, two mice received a control PO, two mice received TLY012 IP, and two mice received ONC201 PO. Mice were weighed twice a week, and 13 days post-irradiation all mice were euthanized. Organs were harvested from the mice and 600 μL of blood was collected via cardiac puncture for serum cytokine analysis. Organs were preserved in 10% formalin then embedded in paraffin and sectioned at a distance of 5 μm. […] TRAIL-/- female mice were also subjected to a survival study with a single whole-thorax radiation doses of 15 Gy or 18 Gy treated with the same regimen of TLY012 or control (n=2/radiation dose/treatment) (FIG. 3B). In order to determine the lethal dose of radiation for C57B1/6 mice, female C57B1/6 mice were treated with a single dose of whole-thorax irradiation of 25 Gy in a survival study where they were treated with either TLY012 or remained control (n=6/treatment) (FIG. 3C).\nAll mouse serum samples were analyzed by a custom R&D systems Murine Premixed Multi- Analyte Kit (R&D Systems, Inc., Minneapolis, MN). The panel was run on a Luminex 200 Instrument (Luminex Corporation, Austin, TX) according to the manufacturer's instructions. Murine serum levels of Angiopoietin-2, BAFF/BLyS/TNFSF13B, CCL2/JE/MCP-1, CCL3/MIP-1 alpha, CCL4/MIP-1 beta, CCL5/RANTES, CCL7/MCP-3/MARC, CCL11/Eotaxin, CCL12/MCP-5, CCL20/MIP-3 alpha, CCL21/6Ckine, CCL22/MDC, Chitinase 3-like 1, CXCL1/GRO alpha/KC/CINC-1, CXCL10/IP-10/CRG-2, CXCL12/S DF- 1 alpha, Dkk-1, FGF basic/FGF2/bFGF, GDF-15, GM-CSF, Granzyme B, IFN-gamma, IGF-I/IGF-1, IL-1 alpha/IL-1F1, IL-1 beta/IL-1F2, IL-2, IL-3, IL-4, IL-6, IL-7, IL-10, IL-13, IL-16, IL-17/IL-17A, IL-27, IL-33 M-CSF, MMP-3, MMP-8, MMP-12, Prolactin, TWEAK/TNFSF12, VEGF, and VEGFR2/KDR/Flk-1 were measured. Analyte values were reported in picograms per milliliter (pg/mL). […] Latent TGF-β was activated in samples using 1 N HCl and samples were neutralized with 1.2 N NaOH/0.5 M HEPES. Samples were assayed immediately after neutralization."}, "C57B1/6 mice": {"tested_on": "C57B1/6 mice", "assay": "Radiation pneumonitis after whole-thorax x-ray irradiation, H&E of lung, wild-type mice", "type": "in vivo, mouse", "experimental": "However, before embarking on the planned experiment, we decided to perform a preliminary, short-term treatment feasibility experiment to ensure some mouse survival after 20 Gy of thoracic irradiation (FIG. 1B). The preliminary experiment was performed with WT and DR5-null mice that were irradiated with 20 Gy, and this was followed by either weekly doses of TIC10/ONC201 (100 mg/kg for total of two doses) or twice a week doses of TLY012 (10 mg/kg for total of four doses) for 2 weeks.\nas §1"}, "TRAIL-/- mice": {"tested_on": "TRAIL-/- mice", "assay": "Radiation pneumonitis after whole-thorax x-ray irradiation, H&E of lung, TRAIL-null mice", "type": "in vivo, mouse", "conditions": "TRAIL-/- male or female mice, 20 Gy thoracic irradiation, two weeks treatment, FIG. 2A, B", "experimental": "as §1, with “In order to determine the lethal dose of radiation for C57B1/6 mice, female C57B1/6 mice were treated with a single dose of whole-thorax irradiation of 25 Gy in a survival study where they were treated with either TLY012 or remained control (n=6/treatment) (FIG. 3C).” left out"}, "duodenum, liver or heart": {"tested_on": "duodenum, liver or heart", "assay": "H&E of duodenum, liver and heart of irradiated, treated mice", "conditions": "20 Gy irradiated mice, 2 weeks treatment", "experimental": "as §1, with “In order to determine the lethal dose of radiation for C57B1/6 mice, female C57B1/6 mice were treated with a single dose of whole-thorax irradiation of 25 Gy in a survival study where they were treated with either TLY012 or remained control (n=6/treatment) (FIG. 3C).” left out"}, "[2]": {"tested_on": "e0771 orthotopic breast tumors in C57B1/6 mice", "assay": "Orthotopic e0771 breast tumor model with 20 Gy whole-thorax irradiation", "description": "C57B1/6 female mice (Taconic) were injected with 100,000 cells of murine breast cancer (e0771) in the right second mammary fat pad on day 0 of the experiment. […] Each group (n=3) also received a single whole-thorax x-ray irradiation dose of 20 Gy with shielding of other organs. One group (n=3) received no treatment and no radiation. The long axis and short axis of the tumors were measured using calipers and recorded twice a week. On day 18 all mice were euthanized at a humane endpoint, which was defined by 20% weight loss and/or a tumor volume of 2000 mm^3 (˜10% of body weight). Organs and tumors were harvested from the mice and 600 μL of blood was collected via cardiac puncture for serum cytokine analysis. Once tumors were extracted, they were weighed and measured to determine final volume and weight. Pulse oximeter readings were taken initially before radiation treatment and before sacrifice 9 days post-radiation (MouseSTAT Jr. Pulse Oximeter, Kent Scientific). When mice were under anesthesia the sensor of the MouseSTAT Jr. was placed on the hind right paw for 30 seconds. The highest and lowest values shown by the pulse oximeter during this time were recorded and then averaged together. The mean of all the averages per treatment group was then calculated."}, "[3]": {"conditions": "irradiated rescued versus irradiated control lung tissues"}, "[4]": {"conditions": "normal or inflamed lung, treated versus irradiated control"}},
  "data": [
    {"compound": "Cc1ccccc1CN1C(=O)C2=C(CCN(Cc3ccccc3)C2)N2CCN=C12", "note": "[ONC201, reference compound]", "values": [
      {"measurement": "NFkB", "setting": "[1]; [3]", "value": "no differences"},
      {"measurement": "proliferation", "setting": "[1]; [3]", "value": "no differences"},
      {"measurement": "DNA double strand break marker gamma-H2AX", "setting": "[1]; [4]", "value": "no difference"},
      {"measurement": "T-cell infiltration (CD3-epsilon)", "setting": "[1]; [4]", "value": "no difference"},
      {"measurement": "collagen in lungs", "setting": "[1]; rescued lungs versus irradiated control", "value": "less collagen"},
      {"measurement": "FGF basic serum level", "setting": "serum cytokines", "value": "increase"},
      {"measurement": "IGF1 serum level", "setting": "serum cytokines", "value": "upregulated"},
      {"measurement": "protection from pneumonitis", "setting": "C57B1/6 mice; WT mice, 20 Gy thoracic irradiation, preliminary experiment, 2 weeks treatment, versus irradiated control, FIG. 1C", "value": "qualitative evidence of protection from pneumonitis"},
      {"measurement": "rescue from radiation-induced pneumonitis", "setting": "C57B1/6 mice; irradiated C57B1/6 mice, FIG. 2", "value": "could rescue mice from radiation-induced pneumonitis"},
      {"measurement": "rescue from radiation pneumonitis", "setting": "TRAIL-/- mice", "value": "did not"},
      {"measurement": "toxicities in duodenum, liver or heart", "setting": "duodenum, liver or heart", "value": "No obvious toxicities"},
      {"measurement": "effect on anti-tumor efficacy of radiation (tumor weight and volume)", "setting": "[2]; 20 Gy on day 9, treatment days 9, 12, 16, sacrifice day 18, FIG. 6B, C", "value": "no evidence that ONC201, TLY012 or their combination reduced efficacy of treatment"},
      {"measurement": "oxygen saturation (pulse oximetry)", "setting": "[2]; 9 days post-radiation, versus irradiated mice without further treatment, FIG. 6D", "value": "partially rescued"},
      {"measurement": "rescue from radiation induced pneumonitis", "setting": "[2]; tumor-bearing mice, 20 Gy", "value": "more potent by TLY012 than with ONC201"}
    ]}
  ]
}
